Where a name gives a salt, the structure may show the parent alone.
How the values were obtained:
FIG. 6B = test: FIG. 6B
Description: Table printed on a drawing sheet, FIG. 6B
Footnotes: *N=2 with Animal 2 excluded.
First reader's note: Each Cmax and AUC0-t cell holds the value together with its SD; the sheet prints no units for Cmax or AUC0-t.

[1] = Photostability of alternative salt forms of lanreotide and TBR-760; type: physicochemical; settings: 1.2 million lux hours visible light or 200 watt hours/square meter UV light, versus control
Description: (§1) In order to evaluate the light sensitivity and stability of TBR-760 chimeric peptide salts, all five salt forms were exposed to ultraviolet (UV) and visible light according to International Council for Harmonisation of Technical Requirements for Pharmaceuticals for Human Use (ICH) guideline Q1B for photostability testing. In brief, a Caron 6540-1 photostability chamber unit with separate UV and light chambers was used for the studies. Visible light exposure was 1.2 million lux hours and UV exposure was 200 watt hours/square meter.
Photostability of lanreotide acetate, lanreotide bromide, lanreotide chloride, TBR-760 acetate, TBR-760 bromide and TBR760 chloride was tested according to the methods of Example 7. Four samples were prepared for each salt form: one control for each of the UV and visible light exposure conditions (controls isolated from light) and one sample for exposure to each of the UV and visible light conditions. For each sample, 2-5 mg of the salt was weighed into 3 mL clear serum vials and stoppered. Vials containing control samples were wrapped in aluminum foil.
Following exposure to visible and UV light, all lanreotide and TBR-760 salts were analyzed by UPLC as described in Example 7.

[2] = Time and temperature stability of lyophilized TBR-760 salts in sealed glass vials (visual appearance, HPLC); type: physicochemical; settings: for salt form degraded: sealed glass vials, HPLC
Protocol: Lyophilized TBR-760 salts prepared as described above were assessed for stability by visual appearance and HPLC following initial production of the salt and following incubation of the salt at 20° C., 40° C., and 60° C. for 2, 4, and 8 weeks in sealed, glass vials. Changes in visual appearance of the salt were noted by evaluating the color of the substance following each incubation condition. Purity of the salt following each incubation condition was evaluated by HPLC. The number and quantity of degradation products were determined according to the number of absorbance peaks that resulted at different retention times and the size of the peaks.

[3] = Thermostability of alternative salt forms of lanreotide and TBR-760 (UPLC); type: physicochemical
Protocol: (§2) Each TBR-760 salt was further evaluated for thermolytic stability over time by setting up three different exposure conditions (25° C. at 60% relative humidity (RH); 40° C. at 75% RH; or 60° C. with open and closed container systems (open dish/closed dish). Approximately 50 mg of each salt form was weighed in a nitrogen-flushed glove box for use in the studies. All samples were stored at −20° C. in a good laboratory practice (GLP) freezer both before and after exposure to the indicated conditions.
(§3) The stability of each salt form was assessed by monitoring the post-exposure drug peak purity and by evaluating the post-exposure visual appearance of the salt. The samples were removed from the exposure conditions and allowed to equilibrate to ambient conditions for 15-20 mins. An appropriate amount of each sample was weighed for analysis and dissolved in diluent (deionized water containing 0.1% TFA) to obtain a stock concentration of 1 mg/mL. The stock solution was then diluted to 0.125 mg/mL in an HPLC vial using diluent and the samples were run on a Waters Acquity UPLC system using the parameters shown in Table 4.
We conducted thermostability studies of lanreotide acetate substantially as described in Example 6. These experiments confirmed that lanreotide acetate is […] when exposed to increasing temperature and humidity conditions over time (FIG. 45). […] (FIG. 45). This degree of thermal and humidity instability is disfavored for a pharmaceutical agent, particularly one intended for patient self-administration at home.
To determine whether a thermostable salt form of TBR-760 could be manufactured, a salt exchange was performed as described in Example 1 to generate bromide and chloride salts of TBR-760. Lanreotide bromide and lanreotide chloride salts were also generated and assessed for thermostability to evaluate the effect of the salt form on compound stability and to compare stability of lanreotide and TBR-760 of each salt.
UPLC assays performed as described in Example 6 were further used to determine the number of degradants—and thus the number of impurities—in each sample. Results showing the purity assessment of each sample following thermostability studies are shown in FIGS. 48A-48B (lanreotide and TBR-760 acetate salts), 49A-49B (lanreotide and TBR-760 bromide salts), and 50A-50B (lanreotide and TBR-760 chloride salts).

[4] = Thermogravimetric analysis (TGA) of TBR-760 salt forms; type: physicochemical; settings: between 110° C. and 200° C.
Protocol: Thermogravimetric analyses (TGA) were performed on all TBR-760 salt forms to evaluate thermal stability of each salt form. Studies were performed using a TGA-Q500 thermogravimetric analyzer (TA Instruments). The weight of each compound was measured while the temperature was increased at a ramp rate of 5.0° C. per minute from 25 to 400° C. […] The weight loss may be indicative of loss of adsorbed moisture, entrained solvent or volatile impurities. Decomposition of the compound appears to start at about 234° C. (sulfate salt), 245° C. (chloride salt), 252° C. (tosylate salt), and 255° C. (mesylate salt). For the acetate salt, a further ˜5% loss of weight between 110° C. and 200° C. was observed, indicating loss of volatile acetate ions over that temperature range (FIG. 8).

[5] = Photostability of TBR-760 salt forms (ICH Q1B, visible and UV light), appearance and UPLC purity; type: physicochemical
Description: as §1
Samples were placed in clear, sealed vials and stored in the appropriate chamber alongside dark controls in amber colored vials wrapped in aluminum foil. Control samples were stored in sealed amber vials at −20° C. The appearance of exposed samples was examined visually before being analyzed via UPLC.

[6] = Solid state (thermolytic) stability of TBR-760 salt forms, open container, UPLC peak purity and appearance; type: physicochemical
Protocol: as §2, §3

[7] = 25° C. at 60% RH, open container
[8] = 40° C. at 75% RH, open container
[9] = UPLC peak purity, 25° C. at 60% RH, open container
[10] = UPLC peak purity, 40° C. at 75% RH, open container
[11] = UPLC peak purity, 60° C., open dish

CCCN1C[C@H](CSCC(=O)NCCCC[C@@H](NC(=O)CSC[C@@H]2C[C@@H]3c4cccc5[nH]cc(c45)C[C@H]3N(CCC)C2)C(=O)N[C@H]2CSSC[C@@H](C(=O)N[C@H](C(N)=O)[C@@H](C)O)NC(=O)[C@H](CC)NC(=O)[C@H](CCCCN)NC(=O)[C@@H](Cc3c[nH]c4ccccc34)NC(=O)[C@H](Cc3ccc(O)cc3)NC2=O)C[C@@H]2c3cccc4[nH]cc(c34)C[C@H]21 [TBR-760 Acetate*]
Tmax (median in hr) (FIG. 6B): 24 h

CCCN1C[C@H](CSCC(=O)NCCCC[C@@H](NC(=O)CSC[C@@H]2C[C@@H]3c4cccc5[nH]cc(c45)C[C@H]3N(CCC)C2)C(=O)N[C@H]2CSSC[C@@H](C(=O)N[C@H](C(N)=O)[C@@H](C)O)NC(=O)[C@H](CC)NC(=O)[C@H](CCCCN)NC(=O)[C@@H](Cc3c[nH]c4ccccc34)NC(=O)[C@H](Cc3ccc(O)cc3)NC2=O)C[C@@H]2c3cccc4[nH]cc(c34)C[C@H]21 [TBR-760 Tosylate]
Tmax (median in hr) (FIG. 6B): 30 h

CCCN1C[C@H](CSCC(=O)NCCCC[C@@H](NC(=O)CSC[C@@H]2C[C@@H]3c4cccc5[nH]cc(c45)C[C@H]3N(CCC)C2)C(=O)N[C@H]2CSSC[C@@H](C(=O)N[C@H](C(N)=O)[C@@H](C)O)NC(=O)[C@H](CC)NC(=O)[C@H](CCCCN)NC(=O)[C@@H](Cc3c[nH]c4ccccc34)NC(=O)[C@H](Cc3ccc(O)cc3)NC2=O)C[C@@H]2c3cccc4[nH]cc(c34)C[C@H]21 [TBR-760 acetate, Dop2-D-Lys(Dop2)-cyclo[Cys-Tyr-D-Trp-Lys-Abu-Cys]-Thr-NH2]
visible appearance after exposure to visible and UV light [1]: from a white salt (control) to a yellow/brown salt
change in visual appearance ([2]; 4 weeks at 60° C.): from a white powder to a yellow powder
salt form degraded ([2]; 60° C. for 4 weeks): 9.9%
salt form degraded ([2]; 60° C. for 8 weeks): more than 16%
compound degraded ([3]; 4 weeks at 60° C. and ambient humidity): greater than 5%
thermostability in words ([3]; increasing temperature and humidity (25° C./60% RH, 40° C./75% RH, 60° C.) up to 4 weeks): does not maintain stability
TGA further loss of weight [4]: approximately 5%
Purity, UV-exposed ([5]; UPLC, UV 200 watt hours/square meter, clear sealed vial): 96.16
Purity, Control ([5]; UPLC, control in sealed amber vial at -20° C.): 98.35
Purity, Dark Ctrl-UV ([5]; UPLC, dark control in UV chamber): 98.42
Purity, Dark Crtl-Light ([5]; UPLC, dark control in visible light chamber): 98.34
Purity, Light-exposed ([5]; UPLC, visible light 1.2 million lux hours, clear sealed vial): 92.14
Appearance, UV-exposed ([5]; UV 200 watt hours/square meter, clear sealed vial, listed as TBR-760 acetate salt): white to a pale yellow-brown color
Appearance, Control ([5]; control in sealed amber vial at -20° C.): white
Appearance, Dark Ctrl-UV ([5]; dark control in UV chamber, amber vial wrapped in aluminum foil): white
Appearance, Dark Crtl-Light ([5]; dark control in visible light chamber, amber vial wrapped in aluminum foil): white
degradation under dark conditions ([5]; dark controls, UPLC): does not degrade
degradation upon exposure to visible or UV light, in words ([5]; visible and UV light, UPLC): degraded
Appearance, Light-exposed ([5]; visible light 1.2 million lux hours, clear sealed vial, listed as TBR-760 acetate salt): white to yellow-brown
Appearance, T = 2 wk [6, 7]: White
Appearance, T = 4 wk [6, 7]: White
Appearance, T = 3 d [6, 7]: White
stability compared with the other salt forms ([6]; 40° C. at 75% RH and 60° C., 2 and 4 weeks, listed as acetate salt): least stable of the salts tested
Appearance, T = 2 wk [6, 8]: White
Appearance, T = 3 d [6, 8]: White
Appearance, T = 4 wk ([6]; 60° C., open dish): Pale Orange
Appearance, T = 3 d ([6]; 60° C., open dish): White
Purity, T = 2 wk [6, 9]: 98.16
Purity, T = 4 wk [6, 9]: 98.09
Purity, T = 3 d [6, 9]: 98.52
Purity, T = 2 wk [6, 10]: 94.52
Purity, T = 4 wk [6, 10]: 92.37
Purity, T = 3 d [6, 10]: 98.4
Purity, T = 2 wk [6, 11]: 89.7
Purity, T = 4 wk [6, 11]: 82.32
Purity, T = 3 d [6, 11]: 96.66
Purity, Control ([6]; UPLC peak purity, control, stored at -20° C.): 98.35
Appearance, Control ([6]; control, stored at -20° C.): White
additional degradants in chromatogram versus control ([6]; two weeks at 60° C., open dish, UPLC, listed as acetate salt): 17

CCCN1C[C@H](CSCC(=O)NCCCC[C@@H](NC(=O)CSC[C@@H]2C[C@@H]3c4cccc5[nH]cc(c45)C[C@H]3N(CCC)C2)C(=O)N[C@H]2CSSC[C@@H](C(=O)N[C@H](C(N)=O)[C@@H](C)O)NC(=O)[C@H](CC)NC(=O)[C@H](CCCCN)NC(=O)[C@@H](Cc3c[nH]c4ccccc34)NC(=O)[C@H](Cc3ccc(O)cc3)NC2=O)C[C@@H]2c3cccc4[nH]cc(c34)C[C@H]21 [TBR-760 Mesylate]
Tmax (median in hr) (FIG. 6B): 30 h
